Experimental data: patent US4568545A, “Thrombolytic agent” (Amano Seiyaku Kabushiki Kaisha, priority 1982, dated 1986)

System: thrombi formed from blood of a healthy adult
Assay: Thrombolytic activity by the Chandler's loop method
Type: biochemical, human
Details: 60 minutes, 37° C.
Experimental: Determination of the thrombolytic activity by the Chandler's loop method: the test solution and control solution were prepared by dissolving the protease and urokinase (a product by Otsuka Seiyaku Co.), respectively, in a physiological saline solution. […] The reference solution for the blank test was the physiological saline solution.
Formation of thrombi and measurement of the dissolution thereof were performed in the following manner. Thus, 0.8 ml of the above obtained fresh blood admixed with sodium citrate and 0.1 ml of a 3% aqueous solution of calcium chloride as CaCl2 ·2H2 O were introduced into a tube of polyvinyl chloride resin having an inner diameter of 3 mm and a length of 250 mm and the ends of the tube were connected to each other to form a loop which was put coaxially on a turntable inclined at an angle of 60° and rotated at 37° C. for 30 minutes at a velocity of 17 r.p.m. to form thrombi therein. Thereafter, 0.1 ml of one of the protease solutions, the urokinase solution or the reference solution was introduced into the loop which was rotated under the same conditions as above for 60 minutes. The thrombi remaining in the tube were then taken out and, after fixing with a Bouin's reagent, i.e. a solution prepared by adding 25 ml of a commercially available formalin solution and 5 ml of glacial acetic acid to 75 ml of a saturated aqueous solution of picric acid, the weight of the wet thrombi was measured.

Urokinase
% Thrombolysis (concentration in blood 50 Iu/ml blood): 8.0% | % Thrombolysis (concentration in blood 100 Iu/ml blood): 39.8% | % Thrombolysis (concentration in blood 150 Iu/ml blood): 49.7% | % Thrombolysis (concentration in blood 200 Iu/ml blood): 60.3% | % Thrombolysis (concentration in blood 250 Iu/ml blood): 66.4%
